Data on seven compounds can be found in PMC5666006, “Combating virulence of Gram-negative bacilli by OmpA inhibition” (Scientific Reports, 2017).

Where a SMILES comes first, the peptide text is derived from it. [ ]: non-standard residue; d: D form. Bounds are passed on as bounds.

A short description of data set [1]: Peptide toxicity, MTT assay. Format: cell-based, human. The note with it: human, A549 cells. The protocol:
(§1) Human type II pneumocyte cell line A549 derived from a human lung carcinoma were obtained from American Type Culture Collection (LGC, UK) and were grown in DMEM medium (Invitrogen, Spain) supplemented with 10% heat-inactivated fetal bovine serum, vancomycin (50 μg/mL), gentamicin (20 μg/mL), amphotericin B (0.25 μg/mL) (Invitrogen, Spain) and 1% HEPES (Invitrogen, Spain) in a humidified incubator, 5% CO2 at 37 °C. A549 cells were routinely passaged every 3–4 days. The cells were seeded 24 h in 96-well plates for cellular viability assay, and in 24 well plates for adhesion and immnunofluorescence assays.
(§2) Peptide toxicity. […] Prior the evaluation of the peptides cytotoxicity, A549 cells were washed three times with prewarmed PBS. Then, peptides cytotoxicity was initially assessed quantitatively by monitoring the mitochondrial reduction activity using the MTT assay as described previously. The percentage of […] was calculated from the optical density (OD) as follow: [(OD of treated cells / mean OD of non-treated cell) × 100].
(§3) Table S2. Percentages of A549 cellular viability assessed through mitochondrial reduction
(§4) activity (MTT assay) in presence of anti-OmpA hexapeptides and control peptides (SXV4 and
(§5) COL). COL: colistin. ND: not determined.
(§6) Peptides 0.25 mg/mL 0.5 mg/mL 1 mg/mL 5 mg/mL

Data set [2] concerns E. coli ATCC 25922. In kind it is cell-based. Here is the method:
(§7) In the initial screening, the bactericidal activity of the synthetic peptides and their toxicity on human lung epithelial cells (A549) were evaluated.
(§8) Table S1. MICs of the six hexapeptides for A. baumannii and E. coli.
(§9) Peptides P. aeruginosa PaO1
(§10) MIC: minimal inhibitory concentration

Data set [3] has as its system P. aeruginosa PaO1. In kind it is cell-based. The protocol:
as §7, §8, §9, §10

In data set [4] the test system is A. baumannii ATCC 17978. Format: cell-based. The protocol:
as §7, §8, §9, §10

The subject of data set [5] is A549 cells. Kind of data set: Peptide toxicity, MTT assay. The note with it: 48 h, MTT, mean ± SEM. Format: cell-based, human. Here is the method: as §1, §2, §3, §4, §5, §6
On the technique in general: Formazan colour is commonly taken as a measure of viable cells.

On to `N=C(N)NCCC[C@@H]1NC(=O)[C@H](Cc2c[nH]c3ccccc23)NC(=O)[C@H]2CCCN2C(=O)[C@H](CCCNC(=N)N)NC(=O)[C@H](Cc2c[nH]c3ccccc23)NC(=O)[C@H]2CCCN2C1=O` [AOA-1] (cyclo(R[dP]WR[dP]W)), for which, in data set [1], the viability – broadly, a read-out of living cells in per cent, often relative to untreated cells – at 48 h, 250 µg/mL came to 98.89 ± 0.41%; the viability at 48 h, 500 µg/mL came out at 99.69 ± 0.26%; the viability at 48 h, 1000 µg/mL was 99.7 ± 0.38%. The MIC (commonly the least concentration at which growth counts as inhibited) in data set [2] is reported as above 500 µg/mL. Further, in data set [3], the minimum inhibitory concentration (MIC) is given as above 500 µg/mL. For the same compound, the minimum inhibitory concentration (MIC) in data set [4] is listed as above 500 µg/mL.

Take `N=C(N)NCCC[C@@H]1NC(=O)[C@@H](Cc2c[nH]c3ccccc23)NC(=O)[C@@H]2CCCN2C(=O)[C@H](CCCNC(=N)N)NC(=O)[C@@H](Cc2c[nH]c3ccccc23)NC(=O)[C@@H]2CCCN2C1=O` [AOA-3] (cyclo(P[dW]RP[dW]R)): in data set [1], the viability at 48 h, 250 µg/mL was determined as 99.27 ± 0.21%; the viability at 48 h, 500 µg/mL was determined as 99.7 ± 0.14%; the viability at 48 h, 1000 µg/mL turned out to be 99.36 ± 0.3%. Further, the MIC in data set [2] is given as above 500 µg/mL. This compound yielded an MIC in data set [3] above 500 µg/mL. This compound had an MIC in data set [4] above 500 µg/mL.

As to `N=C(N)NCCC[C@H]1NC(=O)[C@H](Cc2c[nH]c3ccccc23)NC(=O)[C@@H]2CCCN2C(=O)[C@@H](CCCNC(=N)N)NC(=O)[C@H](Cc2c[nH]c3ccccc23)NC(=O)[C@@H]2CCCN2C1=O` [AOA-4] (cyclo(PW[dR]PW[dR])), in data set [1], the viability at 48 h, 250 µg/mL turned out to be 99.47 ± 0.39%; the viability at 48 h, 500 µg/mL stood at 99.77 ± 0.17%; the viability at 48 h, 1000 µg/mL is 100.1 ± 0.18%. In addition, the MIC in data set [2] is listed as above 500 µg/mL. This compound had an MIC in data set [3] above 500 µg/mL. In data set [4], the minimum inhibitory concentration (MIC) is listed as above 500 µg/mL.

For `O=C1N[C@@H](CO)C(=O)N2CCC[C@@H]2C(=O)N[C@@H](Cc2c[nH]c3ccccc23)C(=O)N[C@@H](CO)C(=O)N2CCC[C@@H]2C(=O)N[C@H]1Cc1c[nH]c2ccccc12` [AOA-5] (cyclo(S[dP]WS[dP]W)), in data set [1], the viability at 48 h, 250 µg/mL turned out to be 98.86 ± 0.08%; the viability at 48 h, 500 µg/mL amounted to 100 ± 0.39%; the viability at 48 h, 1000 µg/mL came to 100.1 ± 0.46%. The same compound showed an MIC in data set [2] above 500 µg/mL. Besides, the MIC in data set [3] was above 500 µg/mL. In addition, in data set [4], the MIC is above 500 µg/mL.

For `O=C(O)CC[C@@H]1NC(=O)[C@H](Cc2c[nH]c3ccccc23)NC(=O)[C@H]2CCCN2C(=O)[C@H](CCC(=O)O)NC(=O)[C@H](Cc2c[nH]c3ccccc23)NC(=O)[C@H]2CCCN2C1=O` [AOA-6] (cyclo(E[dP]WE[dP]W)), in data set [1], the viability at 48 h, 250 µg/mL came out at 98.31 ± 0.35%; the viability at 48 h, 500 µg/mL turned out to be 99.14 ± 0.44%; the viability at 48 h, 1000 µg/mL amounted to 99.38 ± 0.34%. Moreover, the MIC in data set [2] is recorded as above 500 µg/mL. For the same compound, the minimal inhibitory concentration (MIC) in data set [3] was above 500 µg/mL. For the same compound, in data set [4], the MIC was above 500 µg/mL.

As to `CC(=O)N[C@@H](Cc1c[nH]c2ccccc12)C(=O)N1CCC[C@@H]1C(=O)N[C@@H](CCCNC(=N)N)C(=O)N[C@@H](Cc1c[nH]c2ccccc12)C(=O)N1CCC[C@@H]1C(=O)N[C@@H](CCCNC(=N)N)C(=O)O` [SXV4] (Ac-W[dP]RW[dP]R-OH), in data set [1], the viability at 48 h, 250 µg/mL turned out to be 98.17 ± 0.6%; the viability at 48 h, 500 µg/mL came out at 98.79 ± 0.28%; the viability at 48 h, 1000 µg/mL turned out to be 98.55 ± 0.21%. Further, the MIC in data set [2] is given as above 500 µg/mL. The same compound registered an MIC in data set [3] above 500 µg/mL. Also, the MIC in data set [4] is above 500 µg/mL.

As for colistin [reference compound], the “Cellular viability (%)” value in data set [5] (A549, 0.5 mg/mL) worked out at 91.85 ± 2.67%; in data set [5] (A549, 1 mg/mL) it was 68.39 ± 2.93%; in data set [5] (A549, 5 mg/mL), 9.88 ± 0.42%.
